The source made the active and inactive calls.
Experiments:
[1] = target: Tyrosine-protein kinase Lck (Homo sapiens, UniProt P06239)
[2] = target: Serine/threonine-protein kinase pim-2 (Homo sapiens, UniProt Q9P1W9)
[3] = target: Proto-oncogene tyrosine-protein kinase receptor Ret (Homo sapiens, UniProt P07949)
[4] = target: Phosphatidylethanolamine-binding protein 1 (Homo sapiens, UniProt P30086)
[5] = target: Mitogen-activated protein kinase 14 (Homo sapiens, UniProt Q16539)
[6] = target: T1, Protein kinase C zeta type (Homo sapiens, UniProt Q05513)
T1 sequence (Q05513 whole entry): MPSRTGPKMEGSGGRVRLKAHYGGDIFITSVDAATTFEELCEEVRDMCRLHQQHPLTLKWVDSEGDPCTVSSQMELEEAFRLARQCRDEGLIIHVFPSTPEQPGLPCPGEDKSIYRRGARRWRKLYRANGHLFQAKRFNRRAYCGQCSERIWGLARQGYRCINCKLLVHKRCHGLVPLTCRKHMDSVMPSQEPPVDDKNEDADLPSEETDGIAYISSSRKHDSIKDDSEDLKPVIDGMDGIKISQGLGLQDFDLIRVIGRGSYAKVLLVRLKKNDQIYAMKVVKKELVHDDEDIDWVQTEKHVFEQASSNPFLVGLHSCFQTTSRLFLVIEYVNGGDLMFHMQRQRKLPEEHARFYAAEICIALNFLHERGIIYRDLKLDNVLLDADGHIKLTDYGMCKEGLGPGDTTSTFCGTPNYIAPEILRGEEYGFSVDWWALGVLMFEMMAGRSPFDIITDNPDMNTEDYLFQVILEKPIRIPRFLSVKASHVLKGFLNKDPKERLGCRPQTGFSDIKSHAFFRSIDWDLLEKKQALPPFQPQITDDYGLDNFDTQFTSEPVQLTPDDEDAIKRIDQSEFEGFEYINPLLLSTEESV

[7] = target: T2, Cyclin-dependent kinase-like 5 (Homo sapiens, UniProt O76039)
T2 sequence (O76039 whole entry): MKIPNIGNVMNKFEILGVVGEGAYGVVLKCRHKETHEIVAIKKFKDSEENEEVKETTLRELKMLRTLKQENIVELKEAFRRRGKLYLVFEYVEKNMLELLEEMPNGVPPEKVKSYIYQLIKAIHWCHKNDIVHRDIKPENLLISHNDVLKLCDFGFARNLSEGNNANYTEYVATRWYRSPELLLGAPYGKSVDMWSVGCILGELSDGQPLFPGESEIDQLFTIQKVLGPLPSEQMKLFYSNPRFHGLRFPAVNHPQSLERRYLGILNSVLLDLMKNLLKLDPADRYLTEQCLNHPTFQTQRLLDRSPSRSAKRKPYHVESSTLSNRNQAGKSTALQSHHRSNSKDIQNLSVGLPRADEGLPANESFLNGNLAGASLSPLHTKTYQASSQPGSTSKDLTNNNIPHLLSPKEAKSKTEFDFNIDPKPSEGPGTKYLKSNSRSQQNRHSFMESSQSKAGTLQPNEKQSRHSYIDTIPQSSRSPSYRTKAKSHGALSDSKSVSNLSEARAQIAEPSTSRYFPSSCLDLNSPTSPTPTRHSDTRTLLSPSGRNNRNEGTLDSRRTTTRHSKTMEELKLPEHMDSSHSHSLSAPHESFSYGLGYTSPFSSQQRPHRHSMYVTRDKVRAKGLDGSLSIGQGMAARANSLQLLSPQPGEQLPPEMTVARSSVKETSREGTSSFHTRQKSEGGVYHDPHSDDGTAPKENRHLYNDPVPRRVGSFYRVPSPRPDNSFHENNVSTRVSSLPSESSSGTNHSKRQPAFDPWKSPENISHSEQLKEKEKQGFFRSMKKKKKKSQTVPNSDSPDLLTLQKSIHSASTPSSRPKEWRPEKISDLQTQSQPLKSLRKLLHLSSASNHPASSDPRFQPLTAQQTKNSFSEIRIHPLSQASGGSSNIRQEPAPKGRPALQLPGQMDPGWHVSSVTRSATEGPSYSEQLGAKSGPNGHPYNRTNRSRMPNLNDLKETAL

[8] = target: Serine/threonine-protein kinase PLK1 (Homo sapiens, UniProt P53350)
Sequence of Serine/threonine-protein kinase PLK1 (P53350 whole entry): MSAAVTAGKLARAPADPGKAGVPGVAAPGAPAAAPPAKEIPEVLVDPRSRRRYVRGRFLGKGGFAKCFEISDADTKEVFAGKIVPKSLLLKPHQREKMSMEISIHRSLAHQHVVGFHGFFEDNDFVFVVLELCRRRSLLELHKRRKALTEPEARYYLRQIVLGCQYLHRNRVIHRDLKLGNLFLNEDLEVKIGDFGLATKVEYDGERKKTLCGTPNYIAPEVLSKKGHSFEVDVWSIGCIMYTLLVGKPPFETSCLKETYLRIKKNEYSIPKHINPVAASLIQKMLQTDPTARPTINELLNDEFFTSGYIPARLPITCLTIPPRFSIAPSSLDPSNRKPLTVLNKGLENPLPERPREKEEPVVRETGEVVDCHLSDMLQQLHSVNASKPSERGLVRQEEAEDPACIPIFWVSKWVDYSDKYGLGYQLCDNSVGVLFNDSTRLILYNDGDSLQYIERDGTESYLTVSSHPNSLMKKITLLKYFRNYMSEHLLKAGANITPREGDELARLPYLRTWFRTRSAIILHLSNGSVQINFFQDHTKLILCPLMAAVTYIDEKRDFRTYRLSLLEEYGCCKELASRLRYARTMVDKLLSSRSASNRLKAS
Note: in the data inactive means no Kd found up to 30 µM.

Sequence of Proto-oncogene tyrosine-protein kinase receptor Ret (P07949 whole entry): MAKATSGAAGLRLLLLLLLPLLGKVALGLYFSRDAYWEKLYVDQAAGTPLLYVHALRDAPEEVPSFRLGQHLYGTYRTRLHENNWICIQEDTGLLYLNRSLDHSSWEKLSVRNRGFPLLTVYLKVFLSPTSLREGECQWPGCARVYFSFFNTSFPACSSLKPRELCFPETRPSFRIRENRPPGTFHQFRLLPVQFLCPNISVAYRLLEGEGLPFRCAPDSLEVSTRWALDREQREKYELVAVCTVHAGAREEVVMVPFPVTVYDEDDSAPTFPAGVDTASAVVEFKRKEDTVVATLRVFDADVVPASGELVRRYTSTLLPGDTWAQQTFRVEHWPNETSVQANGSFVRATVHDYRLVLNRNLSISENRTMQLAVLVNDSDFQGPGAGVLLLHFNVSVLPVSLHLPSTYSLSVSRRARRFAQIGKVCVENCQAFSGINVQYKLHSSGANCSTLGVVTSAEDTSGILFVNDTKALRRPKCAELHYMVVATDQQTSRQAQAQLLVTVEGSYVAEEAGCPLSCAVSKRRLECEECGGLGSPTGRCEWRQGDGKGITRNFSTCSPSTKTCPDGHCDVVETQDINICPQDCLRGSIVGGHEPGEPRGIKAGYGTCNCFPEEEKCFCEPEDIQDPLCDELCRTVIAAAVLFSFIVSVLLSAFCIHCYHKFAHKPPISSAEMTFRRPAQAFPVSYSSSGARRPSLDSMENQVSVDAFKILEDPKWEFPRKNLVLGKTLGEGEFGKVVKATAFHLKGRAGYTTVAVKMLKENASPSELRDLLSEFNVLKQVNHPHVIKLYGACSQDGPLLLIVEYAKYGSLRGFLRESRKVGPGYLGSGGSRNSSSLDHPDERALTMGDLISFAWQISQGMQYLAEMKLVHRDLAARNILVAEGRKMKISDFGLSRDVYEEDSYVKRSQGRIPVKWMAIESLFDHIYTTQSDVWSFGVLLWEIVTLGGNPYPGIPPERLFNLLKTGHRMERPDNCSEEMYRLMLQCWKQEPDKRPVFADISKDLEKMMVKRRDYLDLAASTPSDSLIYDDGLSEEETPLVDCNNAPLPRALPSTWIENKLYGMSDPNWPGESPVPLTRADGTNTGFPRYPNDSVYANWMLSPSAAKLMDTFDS
Sequence of Mitogen-activated protein kinase 14 (Q16539 whole entry): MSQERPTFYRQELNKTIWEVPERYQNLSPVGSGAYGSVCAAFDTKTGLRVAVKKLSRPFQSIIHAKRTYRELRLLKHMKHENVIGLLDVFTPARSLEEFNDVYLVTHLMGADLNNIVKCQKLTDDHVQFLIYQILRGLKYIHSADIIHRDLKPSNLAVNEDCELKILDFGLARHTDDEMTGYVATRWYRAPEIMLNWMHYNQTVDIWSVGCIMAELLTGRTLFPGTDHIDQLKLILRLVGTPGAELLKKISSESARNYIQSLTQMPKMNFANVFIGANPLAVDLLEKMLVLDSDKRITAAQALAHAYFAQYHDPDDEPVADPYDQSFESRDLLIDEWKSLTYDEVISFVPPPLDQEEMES
Sequence of Serine/threonine-protein kinase pim-2 (Q9P1W9 whole entry): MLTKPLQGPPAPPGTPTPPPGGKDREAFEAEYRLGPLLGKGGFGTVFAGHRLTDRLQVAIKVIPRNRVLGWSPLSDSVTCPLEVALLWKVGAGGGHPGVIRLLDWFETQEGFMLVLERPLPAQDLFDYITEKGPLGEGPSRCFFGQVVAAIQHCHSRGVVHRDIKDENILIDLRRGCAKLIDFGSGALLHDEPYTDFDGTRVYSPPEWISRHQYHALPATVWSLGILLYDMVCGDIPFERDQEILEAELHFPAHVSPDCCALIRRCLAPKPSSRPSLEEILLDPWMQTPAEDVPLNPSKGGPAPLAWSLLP
Sequence of Tyrosine-protein kinase Lck (P06239 whole entry): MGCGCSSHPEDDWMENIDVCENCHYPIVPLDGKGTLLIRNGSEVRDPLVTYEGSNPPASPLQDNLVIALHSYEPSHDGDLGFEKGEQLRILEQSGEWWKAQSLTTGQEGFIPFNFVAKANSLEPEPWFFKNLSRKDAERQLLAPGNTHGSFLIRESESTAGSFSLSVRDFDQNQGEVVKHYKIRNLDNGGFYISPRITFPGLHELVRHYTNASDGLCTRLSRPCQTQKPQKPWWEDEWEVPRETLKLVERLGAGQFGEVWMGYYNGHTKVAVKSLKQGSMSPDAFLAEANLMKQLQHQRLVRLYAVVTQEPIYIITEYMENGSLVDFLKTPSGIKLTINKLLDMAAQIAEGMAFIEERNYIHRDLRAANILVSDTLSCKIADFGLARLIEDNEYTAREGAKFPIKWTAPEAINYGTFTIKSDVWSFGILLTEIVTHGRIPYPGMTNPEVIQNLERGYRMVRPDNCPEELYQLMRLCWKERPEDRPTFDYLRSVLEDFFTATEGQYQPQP
Sequence of Phosphatidylethanolamine-binding protein 1 (P30086 whole entry): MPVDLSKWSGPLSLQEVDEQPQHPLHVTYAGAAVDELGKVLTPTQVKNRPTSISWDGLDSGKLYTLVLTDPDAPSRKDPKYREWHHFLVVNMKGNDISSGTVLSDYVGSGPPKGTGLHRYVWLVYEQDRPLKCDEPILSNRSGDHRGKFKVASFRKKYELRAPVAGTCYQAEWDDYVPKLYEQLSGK

Row | Kd [1] | Kd [2] | Kd [3] | Kd [4] | Kd [5] | Kd [6] | Kd [7] | Kd [8] | Compound
1 |  |  |  | > 30 µM (inactive) |  | > 30 µM (inactive) |  |  | C[C@@]1(C(=O)Nc2ccc(F)nc2)CCCN1c1nc(Nc2cc(C3CC3)n[nH]2)c2cccn2n1 [BMS-754807]
2 |  |  |  | > 30 µM (inactive) | > 30 µM (inactive) |  | > 30 µM (inactive) |  | CCOc1ccn(-c2ccc(F)cc2)c(=O)c1C(=O)Nc1ccc(Oc2ccnc(N)c2Cl)c(F)c1 [BMS-777607]
3 | > 30 µM (inactive) | > 30 µM (inactive) | > 30 µM (inactive) | > 30 µM (inactive) | > 30 µM (inactive) |  | > 30 µM (inactive) |  | c1cc(OCCN2CCCCC2)cc(-c2n[nH]c3ccc(-c4nc[nH]n4)cc23)c1 [CC-401]
4 | > 30 µM (inactive) |  | 2.42 µM (active) | > 30 µM (inactive) | > 30 µM (inactive) |  |  |  | COc1cc2ncnc3c2cc1OCCCCCN(C)Cc1ccc(Br)cc1N3 [JNJ-26483327]
5 | > 30 µM (inactive) | > 30 µM (inactive) | 0.057 µM (active) | > 30 µM (inactive) | > 30 µM (inactive) | > 30 µM (inactive) |  |  | COc1cccc2cc(-c3nc([C@H]4CC[C@H](C(=O)O)CC4)n4ncnc(N)c34)[nH]c12 [OSI-027]
6 | > 30 µM (inactive) | > 30 µM (inactive) |  |  | > 30 µM (inactive) |  | > 30 µM (inactive) | > 30 µM (inactive) | Cc1cc(C(=O)Nc2cc(Oc3ccc4nc(NC(=O)C5CC5)cn4n3)ccc2C)n(C)n1 [TAK-593]

More lines, now with the values behind:

Row | Compound | Kd [1] | Kd [2] | Kd [3] | Kd [4] | Kd [5] | Kd [6] | Kd [7] | Kd [8]
7 | O=c1[nH]c([C@@H]2CCCN2)nc2c1oc1ccc(Cl)cc12 | > 30 µM (inactive) | > 30 µM (inactive) | > 30 µM (inactive) | > 30 µM (inactive) |  |  |  | 
8 | CCN1CCN(Cc2ccc(Nc3ncc(F)c(-c4cc(F)c5nc(C)n(C(C)C)c5c4)n3)nc2)CC1 [ABEMACICLIB] | > 30 µM (inactive) |  | > 30 µM (inactive) |  | > 30 µM (inactive) | > 30 µM (inactive) | > 30 µM (inactive) | 
9 | Cc1c(NC(=O)OC[C@@H]2COCCN2)cn2ncnc(Nc3ccc4c(cnn4Cc4cccc(F)c4)c3)c12 [AC-480] | > 30 µM (inactive) | > 30 µM (inactive) | > 30 µM (inactive) | > 30 µM (inactive) | > 30 µM (inactive) |  |  | > 30 µM (inactive)
10 | C=CCn1c(=O)c2cnc(Nc3ccc(N4CCN(C)CC4)cc3)nc2n1-c1cccc(C(C)(C)O)n1 [ADAVOSERTIB] |  | > 30 µM (inactive) |  | > 30 µM (inactive) |  | > 30 µM (inactive) | > 30 µM (inactive) | > 30 µM (inactive)
11 | CN(C)C/C=C/C(=O)Nc1cc2c(Nc3ccc(F)c(Cl)c3)ncnc2cc1O[C@H]1CCOC1 [AFATINIB] |  |  |  | > 30 µM (inactive) |  | > 30 µM (inactive) |  | 
12 | CCN(CCCOc1ccc2c(Nc3cc(CC(=O)Nc4cccc(F)c4)n[nH]3)ncnc2c1)CCOP(=O)(O)O [BARASERTIB] |  |  |  | > 30 µM (inactive) |  |  | > 30 µM (inactive) | 
13 | COc1cc2nccc(Oc3ccc(NC(=O)C4(C(=O)Nc5ccc(F)cc5)CC4)cc3)c2cc1OC [CABOZANTINIB] | 1.05 µM (active) |  |  | > 30 µM (inactive) | > 30 µM (inactive) | > 30 µM (inactive) |  | > 30 µM (inactive)
14 | COc1cc2c(Oc3ccc4[nH]c(C)cc4c3F)ncnc2cc1OCCCN1CCCC1 [CEDIRANIB] |  |  |  | > 30 µM (inactive) |  | > 30 µM (inactive) |  | 
15 | Cn1c(=O)n(-c2ccc(C(C)(C)C#N)cc2)c2c3cc(-c4cnc5ccccc5c4)ccc3ncc21 [DACTOLISIB] |  |  |  | > 30 µM (inactive) |  | > 30 µM (inactive) |  | 
16 | CC[C@@](C)(Nc1ccnc(-c2c[nH]c3ncccc23)n1)C(=O)NCC(F)(F)F [DECERNOTINIB] | > 30 µM (inactive) |  | > 30 µM (inactive) |  | > 30 µM (inactive) |  | > 30 µM (inactive) | 
17 | CNC(=O)c1ccc(Nc2ncc(C(F)(F)F)c(NCc3nccnc3N(C)S(C)(=O)=O)n2)cc1 [DEFACTINIB] | > 30 µM (inactive) | > 30 µM (inactive) | 27.5 µM (active) |  | > 30 µM (inactive) |  | 0.016 µM | 
18 | CCc1nc(C(N)=O)c(Nc2ccc(N3CCC(N4CCN(C)CC4)CC3)c(OC)c2)nc1NC1CCOCC1 [GILTERITINIB] | > 30 µM (inactive) |  | 0.05 µM (active) |  | > 30 µM (inactive) |  | > 30 µM (inactive) | 
19 | N#CCNC(=O)c1ccc(-c2ccnc(Nc3ccc(N4CCOCC4)cc3)n2)cc1 [MOMELOTINIB] |  | > 30 µM (inactive) |  | > 30 µM (inactive) | > 30 µM (inactive) |  | > 30 µM (inactive) | 
20 | C=CC(=O)Nc1cc(Nc2nccc(-c3cn(C)c4ccccc34)n2)c(OC)cc1N(C)CCN(C)C [OSIMERTINIB] | > 30 µM (inactive) |  | > 30 µM (inactive) | > 30 µM (inactive) | > 30 µM (inactive) |  | > 30 µM (inactive) | 
21 | FC(F)(F)c1ccc(CNc2ccc(Cc3c[nH]c4ncc(Cl)cc34)cn2)cn1 [PEXIDARTINIB] | > 30 µM (inactive) | > 30 µM (inactive) | > 30 µM (inactive) |  | > 30 µM (inactive) |  |  | 
22 | COc1cc(F)c(F)c(Nc2ccc(I)cc2F)c1NS(=O)(=O)C1(C[C@H](O)CO)CC1 [REFAMETINIB] | > 30 µM (inactive) |  | > 30 µM (inactive) | > 30 µM (inactive) | > 30 µM (inactive) | > 30 µM (inactive) | > 30 µM (inactive) | 
23 | COCCN1CCN(Cc2ccc(-c3n[nH]c4c3C(=O)c3c(NC(=O)NN5CCOCC5)cccc3-4)cc2)CC1 [RGB-286638] | > 30 µM (inactive) | 0.042 µM (active) | > 30 µM (inactive) | > 30 µM (inactive) | > 30 µM (inactive) | > 30 µM (inactive) |  | 
24 | C=CC(=O)Nc1cccc(Nc2nc(Nc3ccc(N4CCN(C(C)=O)CC4)cc3OC)ncc2C(F)(F)F)c1 [ROCILETINIB] | > 30 µM (inactive) | > 30 µM (inactive) | > 30 µM (inactive) | > 30 µM (inactive) | > 30 µM (inactive) |  |  | 
25 | Cn1cnc2c(F)c(Nc3ccc(Br)cc3Cl)c(C(=O)NOCCO)cc21 [SELUMETINIB] |  |  |  | > 30 µM (inactive) |  | > 30 µM (inactive) |  | 
26 | O=C(O)c1ccc2c(c1)nc(Nc1cccc(Cl)c1)c1ccncc12 [SILMITASERTIB] | > 30 µM (inactive) |  | > 30 µM (inactive) |  | > 30 µM (inactive) |  | > 30 µM (inactive) | 0.672 µM (active)
27 | C=CCN(/C=C1/C(=O)O[C@H](COC)[C@@]2(C)C1=C(O)C(=O)C1=C2[C@H](OC(C)=O)C[C@]2(C)C(=O)CC[C@@H]12)CC=C [SONOLISIB] | > 30 µM (inactive) |  | > 30 µM (inactive) |  | > 30 µM (inactive) |  | > 30 µM (inactive) | 
28 | O[C@H]1CC[C@H](Nc2ncc3nc(Nc4c(F)cc(F)cc4F)n([C@H]4CCOC4)c3n2)CC1 [TANZISERTIB] | > 30 µM (inactive) | > 30 µM (inactive) |  | > 30 µM (inactive) | 0.729 µM (active) | > 30 µM (inactive) | > 30 µM (inactive) | 

From ChEMBL document CHEMBL3991601, “The target landscape of clinical kinase drugs” (Science, 2017)
